EC50 data for 32 compounds are collected here from patent publication US20150087673A1, “METHODS FOR USING AND BIOMARKERS FOR AMPK-ACTIVATING COMPOUNDS” (RIGEL PHARMACEUTICALS, INC., priority 2013, published 2015).

The test system of this assay is AMPK. In words: AMPK activation assay (enzyme-linked immunosorbent assay). Type of assay: cell-based. The method, boiled down: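 Compounds were tested for their capacity to activate the kinase using standard, commercially available kit reagents and procedures.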

Molecules are shown by their SMILES. A value given as a limit tells only on which side of the number the result lay.

On to `COc1ccc(C(=O)C2CCN(c3ccc(C(=O)N4CCN(Cc5ccc(F)cc5)CC4)cn3)CC2)cc1` [Compound 189, (4-(4-fluorobenzyl)piperazin-1-yl)(6-(4-(4-methoxybenzoyl)piperidin-1-yl)pyridin-3-yl)methanone], for which the EC50 is 1000 to 5000 nM.
The result for `Cc1ccc(Oc2ccc(NC(=O)c3ccc(C(=O)N4CCN(Cc5ccc(F)cc5)CC4)cn3)cc2)cc1` [Compound 53, 5-(4-(4-fluorobenzyl)piperazine-1-carbonyl)-N-(4-(4-methylphenoxy)phenyl)picolinamide] reads below 500 nM.
Consider `N#Cc1ccc(CN2CCC(NC(=O)c3ccc(C(=O)N4CCC(C(F)c5ccc(F)cc5)CC4)cn3)CC2)cc1` (centres unmarked) [Compound 138, N-(1-(4-cyanobenzyl)piperidin-4-yl)-5-(4-(fluoro(4-fluorophenyl)methyl)piperidine-1-carbonyl)picolinamide], for which the EC50 was below 500 nM.
`COc1ccc(C(=O)C2CCN(C(=O)c3ccc(C(=O)N[C@@H]4CCN(Cc5ccc(OC(F)(F)F)cc5)C[C@@H]4F)cn3)CC2)cc1` (relative stereo) [Compound 461, N-((cis)-3-fluoro-1-(4-(trifluoromethoxy)benzyl)piperidin-4-yl)-6-(4-(4-methoxybenzoyl)piperidine-1-carbonyl)nicotinamide] yielded an EC50 below 500 nM.
To `N#Cc1cccc(Oc2ccc(NC(=O)c3ccc(C(=O)N4CCN(Cc5ccc(F)cc5)CC4)cn3)cc2)c1` [Compound 56, N-(4-(3-cyanophenoxy)phenyl)-5-(4-(4-fluorobenzyl)piperazine-1-carbonyl)picolinamide] belongs below 500 nM; to `O=C(Nc1ccc(Oc2ccc(F)cc2)nc1)c1ccc(C(=O)N2CCC(Oc3ccc(S(F)(F)(F)(F)F)cc3)CC2)nc1` [Compound 496, N-(6-(4-fluorophenoxy)pyridin-3-yl)-6-(4-(4-(pentafluorosulfanyl)phenoxy)piperidine-1-carbonyl)nicotinamide], below 500 nM; to `COc1ccc(C(=O)C2CCN(C(=O)c3ccc(C(=O)Nc4ccc(Oc5ccc(S(C)(=O)=O)cc5)nc4)cn3)CC2)cc1` [Compound 465, 6-(4-(4-methoxybenzoyl)piperidine-1-carbonyl)-N-(6-(4-(methylsulfonyl)phenoxy)pyridin-3-yl)nicotinamide], below 500 nM.
On to `O=C(NC1CCN(Cc2cc(F)cc(F)c2)CC1)c1ccc(C(=O)N2CC(OCc3ccc(F)cc3)C2)cn1` [Compound 308, N-(1-(3,5-difluorobenzyl)piperidin-4-yl)-5-(3-(4-fluorobenzyloxy)azetidine-1-carbonyl)picolinamide], for which the EC50 is below 500 nM.
With `N#Cc1ccc(CNC(=O)c2ccc(NC(=O)c3ccc(C(=O)N4CCN(Cc5ccc(F)cc5)CC4)cn3)cc2)cc1` [Compound 47, N-(4-(4-cyanobenzylcarbamoyl)phenyl)-5-(4-(4-fluorobenzyl)piperazine-1-carbonyl)picolinamide], the EC50 was below 500 nM.
Consider `COc1ccc(C(=O)C2CCN(C(=O)c3ccc(C(=O)N[C@H]4CC[C@@H](Oc5ccc(F)cc5)CC4)nc3)CC2)cc1` [Compound 311, N-((cis)-4-(4-fluorophenoxy)cyclohexyl)-5-(4-(4-methoxybenzoyl)piperidine-1-carbonyl)picolinamide], for which the EC50 is below 500 nM.
`CS(=O)(=O)c1ccc(Oc2ccc(NC(=O)c3ccc(C(=O)N4CCC(C(=O)c5ccc(F)cc5F)CC4)nc3)cn2)cc1` [Compound 466, 6-(4-(2,4-difluorobenzoyl)piperidine-1-carbonyl)-N-(6-(4-(methylsulfonyl)phenoxy)pyridin-3-yl)nicotinamide] showed an EC50 below 500 nM.
To `CSc1ccc(C(=O)C2CCN(C(=O)c3ccc(C(=O)NC4CCN(Cc5ccc(C#N)cc5)CC4)nc3)CC2)cc1` [Compound 372, N-(1-(4-cyanobenzyl)piperidin-4-yl)-5-(4-(4-(methylthio)benzoyl)piperidine-1-carbonyl)picolinamide] belongs below 500 nM; to `CS(=O)(=O)c1ccc(OC2CCN(C(=O)c3ccc(C(=O)NC4CCN(Cc5ccc(C#N)cc5)CC4)nn3)CC2)cc1` [Compound 399, N-(1-(4-cyanobenzyl)piperidin-4-yl)-6-(4-(4-(methylsulfonyl)phenoxy)piperidine-1-carbonyl)pyridazine-3-carboxamide], below 500 nM; to `N#Cc1ccc(CN2CCC(NC(=O)c3ccc(C(=O)N4CCN(C5CCOCC5)CC4)cn3)CC2)cc1` [Compound 83, N-(1-(4-cyanobenzyl)piperidin-4-yl)-5-(4-(tetrahydro-2H-pyran-4-yl)piperazine-1-carbonyl)picolinamide], above 10000 nM.
The compound `COc1ccc(OC2CCN(C(=O)c3ccc(C(=O)NC4CCN(Cc5ccc(C#N)cc5)CC4)cn3)CC2)c(NC(C)=O)c1` [Compound 383, 6-(4-(2-acetamido-4-methoxyphenoxy)piperidine-1-carbonyl)-N-(1-(4-cyanobenzyl)piperidin-4-yl)nicotinamide] returned an EC50 above 10000 nM.
For the compound `COc1ccc(C(=O)C2CCN(C(=O)c3ccc(C(=O)N[C@@H]4CCN(Cc5ccc(C#N)cc5)C[C@@H]4F)cn3)CC2)cc1` (relative stereo) [Compound 454, N-((cis)-1-(4-cyanobenzyl)-3-fluoropiperidin-4-yl)-6-(4-(4-methoxybenzoyl)piperidine-1-carbonyl)nicotinamide], the EC50 is below 500 nM.
Regarding `N#Cc1ccc(CN2CCC(NC(=O)c3ccc(C(=O)N4CCC(C(=O)c5ccc(-n6cccn6)cc5)CC4)cn3)CC2)cc1` [Compound 375, 5-(4-(4-(1H-pyrazol-1-yl)benzoyl)piperidine-1-carbonyl)-N-(1-(4-cyanobenzyl)piperidin-4-yl)picolinamide], the EC50 was below 500 nM.
Regarding `COc1ccc(C(=O)C2CCN(C(=O)c3ccc(C(=O)NC4CCN(Cc5ccc(N)cc5)CC4)cn3)CC2)cc1` [Compound 400, N-(1-(4-aminobenzyl)piperidin-4-yl)-6-(4-(4-methoxybenzoyl)piperidine-1-carbonyl)nicotinamide], the EC50 fell in the range of 1000 to 5000 nM.
Consider `COc1ccc(C(=O)C2CCN(C(=O)c3ccc(C(=O)NC4CCN(Cc5ccc(N6CCCC6)cc5)CC4)nc3)CC2)cc1` [Compound 194, 5-(4-(4-methoxybenzoyl)piperidine-1-carbonyl)-N-(1-(4-(pyrrolidin-1-yl)benzyl)piperidin-4-yl)picolinamide], for which the EC50 is below 500 nM.
To `N#Cc1ccc(CN2CCC(NC(=O)c3ccc(C(=O)N4CCN(C(=O)c5ccc(F)cc5)CC4)cn3)CC2)cc1` [Compound 76, N-(1-(4-cyanobenzyl)piperidin-4-yl)-5-(4-(4-fluorobenzoyl)piperazine-1-carbonyl)picolinamide] belongs below 500 nM.
With `O=C(Nc1ccc(Oc2ccc(F)cc2)nc1)c1cnc(C(=O)N2CCC(Oc3ccc(C(F)(F)F)cc3)CC2)cn1` [Compound 205, N-(6-(4-fluorophenoxy)pyridin-3-yl)-5-(4-(4-(trifluoromethyl)phenoxy)piperidine-1-carbonyl)pyrazine-2-carboxamide], the EC50 was below 500 nM.
The compound `CC(=O)Nc1cccc(OC2CCN(C(=O)c3ccc(C(=O)NC4CCN(Cc5ccc(C#N)cc5)CC4)cn3)CC2)c1` [Compound 411, 6-(4-(3-acetamidophenoxy)piperidine-1-carbonyl)-N-(1-(4-cyanobenzyl)piperidin-4-yl)nicotinamide] showed an EC50 of 1000 to 5000 nM.
To `COc1cc(C#N)ccc1OC1CCN(C(=O)c2ccc(C(=O)NC3CCN(Cc4ccc(C#N)cc4)CC3)nc2)CC1` [Compound 66, 5-(4-(4-cyano-2-methoxyphenoxy)piperidine-1-carbonyl)-N-(1-(4-cyanobenzyl)piperidin-4-yl)picolinamide] belongs below 500 nM; to `COc1ccc(OC2CCN(C(=O)c3ccc(C(=O)NC4CCN(Cc5ccc(N6CCCC6)cc5)CC4)nc3)CC2)cc1` [Compound 195, 5-(4-(4-methoxyphenoxy)piperidine-1-carbonyl)-N-(1-(4-(pyrrolidin-1-yl)benzyl)piperidin-4-yl)picolinamide], below 500 nM.
Regarding `N#Cc1ccc(C(=O)N2CCC(NC(=O)c3ccc(C(=O)N4CCN(Cc5ccc(F)cc5)CC4)cn3)CC2)cc1` [Compound 4, N-(1-(4-cyanobenzoyl)piperidin-4-yl)-5-(4-(4-fluorobenzyl)piperazine-1-carbonyl)picolinamide], the EC50 was in the range of 500 to 1000 nM.
To `O=C(c1cccc(C(=O)N2CCN(Cc3ccc(F)cc3)CC2)n1)N1CCN(CCc2ccccc2)CC1` [Compound 93, (4-(4-fluorobenzyl)piperazin-1-yl)(6-(4-phenethylpiperazine-1-carbonyl)pyridin-2-yl)methanone] belongs above 10000 nM; to `O=C(NC1CCN(Cc2ccccc2)CC1)c1ccc(Nc2ccc(Oc3ccccc3)cc2)cn1` [Compound 113, N-(1-benzylpiperidin-4-yl)-5-(4-phenoxyphenylamino)picolinamide], 1000 to 5000 nM.
`O=C(NC1CCN(Cc2ccc(F)cc2)CC1)c1ccc(C(=O)N2CCC(C(=O)c3ccc(-n4cccn4)cc3)CC2)nc1` [Compound 392, 6-(4-(4-(1H-pyrazol-1-yl)benzoyl)piperidine-1-carbonyl)-N-(1-(4-fluorobenzyl)piperidin-4-yl)nicotinamide] displayed an EC50 below 500 nM.
With `CC(=O)c1ccc(OC2CCN(C(=O)c3ccc(C(=O)NC4CCN(Cc5ccc(C#N)cc5)CC4)nn3)CC2)cc1` [Compound 437, 6-(4-(4-acetylphenoxy)piperidine-1-carbonyl)-N-(1-(4-cyanobenzyl)piperidin-4-yl)pyridazine-3-carboxamide], the EC50 is below 500 nM.
The compound `O=C(NC1CCN(Cc2ccc(F)cc2)CC1)c1ccc(C(=O)N2CCN(Cc3ccc(F)cc3)CC2)nc1` [Compound 328, 6-(4-(4-fluorobenzyl)piperazine-1-carbonyl)-N-(1-(4-fluorobenzyl)piperidin-4-yl)nicotinamide] gave a concentration for a half-maximal effect (EC50) below 500 nM.
The result for `O=C(NC1CCN(c2ccccc2)CC1)c1ccc(C(=O)N2CCN(Cc3ccc(F)cc3)CC2)cn1` [Compound 14, 5-(4-(4-fluorobenzyl)piperazine-1-carbonyl)-N-(1-(phenyl)piperidin-4-yl)picolinamide] reads 500 to 1000 nM.
The result for `COc1ccc(C(=O)C2CCN(C(=O)c3cnc(C(=O)Nc4ccc(Oc5ccc(F)cc5)nc4)cn3)CC2)cc1` [Compound 204, N-(6-(4-fluorophenoxy)pyridin-3-yl)-5-(4-(4-methoxybenzoyl)piperidine-1-carbonyl)pyrazine-2-carboxamide] reads below 500 nM.
